Tests used:
[1] = test system: barnyardgrass (Echinochloa crus-galli); assay: Test A preemergence, visual injury rating 0-100 (0 no effect, 100 complete control); format: in vivo
[2] = test system: foxtail, giant (giant foxtail, Setaria faberii); assay: Test A preemergence, visual injury rating 0-100; format: in vivo
[3] = test system: kochia (Kochia scoparia); assay: Test A preemergence, visual injury rating 0-100; format: in vivo
[4] = test system: pigweed (Amaranthus retroflexus); assay: Test A preemergence, visual injury rating 0-100; format: in vivo
[5] = test system: ragweed (common ragweed, Ambrosia elatior); assay: Test A preemergence, visual injury rating 0-100; format: in vivo
[6] = test system: ryegrass, Italian (Italian ryegrass, Lolium multiflorum); assay: Test A preemergence, visual injury rating 0-100; format: in vivo
[7] = test system: barnyardgrass (Echinochloa crus-galli); assay: Test A postemergence, visual injury rating 0-100; format: in vivo; settings: 0 to 100 scale
[8] = test system: blackgrass (Alopecurus myosuroides); assay: Test A postemergence, visual injury rating 0-100; format: in vivo; settings: 0 to 100 scale
[9] = test system: corn (Zea mays); assay: Test A postemergence, visual injury rating 0-100; format: in vivo; settings: 0 to 100 scale
[10] = test system: foxtail, giant (giant foxtail, Setaria faberii); assay: Test A postemergence, visual injury rating 0-100; format: in vivo; settings: 0 to 100 scale
[11] = test system: galium (catchweed bedstraw, Galium aparine); assay: Test A postemergence, visual injury rating 0-100; format: in vivo; settings: 0 to 100 scale
[12] = test system: kochia (Kochia scoparia); assay: Test A postemergence, visual injury rating 0-100; format: in vivo; settings: 0 to 100 scale
[13] = test system: pigweed (Amaranthus retroflexus); assay: Test A postemergence, visual injury rating 0-100; format: in vivo; settings: 0 to 100 scale
[14] = test system: ragweed (common ragweed, Ambrosia elatior); assay: Test A postemergence, visual injury rating 0-100; format: in vivo; settings: 0 to 100 scale
[15] = test system: ryegrass, Italian (Italian ryegrass, Lolium multiflorum); assay: Test A postemergence, visual injury rating 0-100; format: in vivo; settings: 0 to 100 scale
[16] = test system: wheat (Triticum aestivum); assay: Test A postemergence, visual injury rating 0-100; format: in vivo; settings: 0 to 100 scale
[17] = test system: ducksalad (Heteranthera limosa); assay: Test B flooded paddy test, visual rating 0-100; settings: Flood, 250 g ai/ha, applied to paddy water, rated after 13 to 15 days
[18] = test system: barnyardgrass (Echinochloa crus-galli); assay: Test B flooded paddy test, visual rating 0-100; settings: Flood, 250 g ai/ha, applied to paddy water, rated after 13 to 15 days
[19] = test system: rice (Oryza sativa); assay: Test B flooded paddy test, visual rating 0-100 (0 no effect, 100 complete control); settings: Flood, 250 g ai/ha, applied to paddy water, rated after 13 to 15 days

CC1=[N+]([O-])C(C(=O)Nc2cccc(F)c2F)C(c2ccc(C(F)(F)F)c(Cl)c2)C1 (racemic) [Compound 102]
20: Ragweed plant response rating ([14]; 125 g ai/ha) | Wheat plant response rating ([16]; 125 g ai/ha)
50: Ragweed plant response rating (0 to 100 scale) ([5]; 125 g ai/ha) | Galium plant response rating ([11]; 125 g ai/ha) | Ragweed plant response rating ([14]; 500 g ai/ha) | Ryegrass, Italian plant response rating ([15]; 500 g ai/ha)
10: Kochia plant response rating (0 to 100 scale) ([3]; 125 g ai/ha)
0: Ducksalad plant response rating (0 to 100 scale) [17] | Barnyardgrass plant response rating (0 to 100 scale) [18] | Rice plant response rating (0 to 100 scale) [19]
90: Barnyardgrass plant response rating (0 to 100 scale) ([1]; 500 g ai/ha) | Foxtail, Giant plant response rating (0 to 100 scale) ([2]; 125 g ai/ha) | Foxtail, Giant plant response rating (0 to 100 scale) ([2]; 500 g ai/ha) | Pigweed plant response rating (0 to 100 scale) ([4]; 500 g ai/ha) | Ryegrass, Italian plant response rating (0 to 100 scale) ([6]; 500 g ai/ha)
80: Barnyardgrass plant response rating (0 to 100 scale) ([1]; 125 g ai/ha) | Kochia plant response rating (0 to 100 scale) ([3]; 500 g ai/ha) | Ragweed plant response rating (0 to 100 scale) ([5]; 500 g ai/ha) | Barnyardgrass plant response rating ([7]; 500 g ai/ha) | Blackgrass plant response rating ([8]; 500 g ai/ha) | Foxtail, Giant plant response rating ([10]; 500 g ai/ha)
60: Pigweed plant response rating (0 to 100 scale) ([4]; 125 g ai/ha) | Blackgrass plant response rating ([8]; 125 g ai/ha)
70: Ryegrass, Italian plant response rating (0 to 100 scale) ([6]; 125 g ai/ha) | Barnyardgrass plant response rating ([7]; 125 g ai/ha) | Foxtail, Giant plant response rating ([10]; 125 g ai/ha) | Galium plant response rating ([11]; 500 g ai/ha) | Pigweed plant response rating ([13]; 500 g ai/ha)
30: Kochia plant response rating ([12]; 125 g ai/ha) | Pigweed plant response rating ([13]; 125 g ai/ha)
40: Corn plant response rating ([9]; 125 g ai/ha) | Corn plant response rating ([9]; 500 g ai/ha) | Kochia plant response rating ([12]; 500 g ai/ha) | Ryegrass, Italian plant response rating ([15]; 125 g ai/ha) | Wheat plant response rating ([16]; 500 g ai/ha)

CC1=[N+]([O-])C(C(=O)Nc2cccc(F)c2F)C(c2cc(C)cc(F)c2)C1 (racemic) [Compound 103]
10: Kochia plant response rating (0 to 100 scale) ([3]; 125 g ai/ha)
65: Barnyardgrass plant response rating (0 to 100 scale) [18]
90: Barnyardgrass plant response rating (0 to 100 scale) ([1]; 125 g ai/ha) | Barnyardgrass plant response rating (0 to 100 scale) ([1]; 500 g ai/ha) | Foxtail, Giant plant response rating (0 to 100 scale) ([2]; 125 g ai/ha) | Ragweed plant response rating (0 to 100 scale) ([5]; 500 g ai/ha) | Ryegrass, Italian plant response rating (0 to 100 scale) ([6]; 500 g ai/ha) | Barnyardgrass plant response rating ([7]; 500 g ai/ha) | Foxtail, Giant plant response rating ([10]; 500 g ai/ha)
70: Pigweed plant response rating (0 to 100 scale) ([4]; 500 g ai/ha) | Blackgrass plant response rating ([8]; 500 g ai/ha) | Ryegrass, Italian plant response rating ([15]; 500 g ai/ha) | Wheat plant response rating ([16]; 500 g ai/ha)
0: Galium plant response rating ([11]; 125 g ai/ha) | Kochia plant response rating ([12]; 125 g ai/ha) | Pigweed plant response rating ([13]; 125 g ai/ha) | Rice plant response rating (0 to 100 scale) [19]
80: Kochia plant response rating (0 to 100 scale) ([3]; 500 g ai/ha) | Barnyardgrass plant response rating ([7]; 125 g ai/ha) | Blackgrass plant response rating ([8]; 125 g ai/ha) | Foxtail, Giant plant response rating ([10]; 125 g ai/ha) | Ducksalad plant response rating (0 to 100 scale) [17]
50: Corn plant response rating ([9]; 125 g ai/ha) | Galium plant response rating ([11]; 500 g ai/ha) | Pigweed plant response rating ([13]; 500 g ai/ha) | Ryegrass, Italian plant response rating ([15]; 125 g ai/ha)
40: Ragweed plant response rating ([14]; 125 g ai/ha) | Ragweed plant response rating ([14]; 500 g ai/ha)
100: Foxtail, Giant plant response rating (0 to 100 scale) ([2]; 500 g ai/ha)
60: Ragweed plant response rating (0 to 100 scale) ([5]; 125 g ai/ha) | Corn plant response rating ([9]; 500 g ai/ha)
20: Wheat plant response rating ([16]; 125 g ai/ha)
30: Pigweed plant response rating (0 to 100 scale) ([4]; 125 g ai/ha) | Kochia plant response rating ([12]; 500 g ai/ha)
